Assay results reported in patent US11040053B2, “Compositions and methods for activating “stimulator of interferon gene”13 dependent signalling” (CHINOOK THERAPEUTICS, INC., priority 2015, dated 2021).

How the values were obtained:
HAQ allele hSTING = target: T1, HAQ allele hSTING (Homo sapiens, UniProt Q86WV6, G230A/H232R/R293Q); assay: Differential scanning fluorometry (DSF) binding to purified hSTING HAQ allele; settings: for hSTING Tm Shift HAQ: DSF, 1 mg/ml STING AA140-379, ligand 1 mM
T1 construct: DNA encoding amino acids 140-379 (amino acid numbering corresponding to Swiss Prot Q86WV6); 6xHIS (N, cleaved yes); SUMO (N, cleaved yes); made in house; host or cells: Rosetta2 (DE3) E. coli
Protocol: (§1) Cells were grown in lysogeny broth at 37° C. until a […] absorbance of 0.6 was reached. […] Cell pellets were re-suspended on ice in a buffer containing 50 mM Tris hydrochloride (Tris-HCl) pH 7.5, 500 mM sodium chloride (NaCl), 20 mM imidazole, 10% glycerol, 1 mM tris(2-carboxyethyl)phosphine hydrochloride (TCEP) and protease inhibitor tablet (Pierce) (Buffer A). Cells were lysed using an S-450D sonifier (Emmerson industrial) on ice. […] Protein was aliquoted, flash frozen in liquid nitrogen and stored at −80° C. until use.
(§2) The protein is heated in the presence of a dye that binds to and fluoresces in hydrophobic environments. The protein is thermally denatured by heating resulting in increased dye binding to the unfolded protein and fluorescence. The temperature midpoint (Tm) of a proteins denaturation is established by calculating the half maximal value of the denaturation curve. The temperature midpoint of the protein in the presence of a ligand is directly related to the affinity of the ligand for the protein and therefore its ability to stabilize the protein at higher temperatures.
(§3) Samples were placed in hard shell PCR plate (Bio-Rad). The fluorescence as a function of temperature was recorded in a CFX 96 real time PCR machine (Bio-Rad) reading on the HEX channel, excitation 450-490, emission 560-580 nm. The temperature gradient was from 15-80° C. ramping 0.5° C. per 15 seconds and recording every 0.5° C. After subtraction of the background signal from a sample lacking protein and ligand. The midpoint temperature (Tm) was calculated by fitting the curves of the fluorescence as a function of temperature to a Boltzmann sigmoidal function (Graph Pad Prism).

hSTING(WT) = hSTING(WT) (Homo sapiens, UniProt Q86WV6, H232R); assay: Differential scanning fluorometry (DSF) binding to purified hSTING WT; parameters: DNA encoding amino acids 140-379 (amino acid numbering corresponding to Swiss Prot Q86WV6); 6xHIS (N, cleaved yes); SUMO (N, cleaved yes); made in house; host or cells: Rosetta2 (DE3) E. coli; settings: for hSTING Tm Shift WT: DSF, 1 mg/ml STING AA140-379, ligand 1 mM
Protocol: as §1, §2, §3

hSTING(REF) = hSTING(REF) (Homo sapiens, UniProt Q86WV6); assay: Differential scanning fluorometry (DSF) binding to purified hSTING REF allele; parameters: DNA encoding amino acids 140-379 (amino acid numbering corresponding to Swiss Prot Q86WV6); 6xHIS (N, cleaved yes); SUMO (N, cleaved yes); made in house; host or cells: Rosetta2 (DE3) E. coli; settings: for hSTING Tm Shift REF: DSF, 1 mg/ml STING AA140-379, ligand 1 mM; for binding relative to OH reference compound, in words: Table 4 comment, REF allele hSTING
Protocol: as §1, §2, §3

hSTING HAQ allele = target: T2, hSTING HAQ allele (Homo sapiens, UniProt Q86WV6, G230A/H232R/R293Q/R71H); assay: IRF-3 inducible secreted luciferase reporter in THP1-Dual cells without digitonin; assay type: cell-based; settings: for EC50: without digitonin in THP1 cells (HAQ allele)
T2 construct: a human monocyte cell line containing the hSTING HAQ allele; host or cells: THP1-Dual cells
Protocol: After 30 minutes, cells were washed and fresh RPMI media containing 10% FBS was added, and cells were incubated at 37° C. with 5% CO2 Cell culture supernatants from each sample were collected after overnight incubation, and 10 μL of the cell culture supernatants was added to 50 μL QUANTI-Luc reagent (Invivogen). Type I interferon activation was determined by measuring secreted luciferase levels on a SpectraMax M3 spectrophotometer (Molecular Devices). The EC50 value was determined from the dose-response curve for the 10 concentrations from the serial dilution of the reference compounds and compounds of the invention tested in this assay as listed in Table 5.

T1 sequence (Q86WV6 140-379 G230A/H232R/R293Q limits assumed): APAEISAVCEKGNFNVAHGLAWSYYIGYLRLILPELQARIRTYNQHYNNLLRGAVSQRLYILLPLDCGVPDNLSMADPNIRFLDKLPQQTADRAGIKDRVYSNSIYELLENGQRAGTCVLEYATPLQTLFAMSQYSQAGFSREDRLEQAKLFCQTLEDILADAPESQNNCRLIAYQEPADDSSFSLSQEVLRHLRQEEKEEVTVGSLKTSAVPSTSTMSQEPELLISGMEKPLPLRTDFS
Chain of hSTING(REF) (Q86WV6 140-379): as the sequence (Q86WV6 140-379 G230A/H232R/R293Q limits assumed) above, with A91G, R93H, Q154R counted along it
Chain of hSTING(WT) (Q86WV6 140-379 H232R): as the sequence (Q86WV6 140-379 G230A/H232R/R293Q limits assumed) above, with A91G, Q154R counted along it
T2 sequence (Q86WV6 whole entry R71H/G230A/H232R/R293Q): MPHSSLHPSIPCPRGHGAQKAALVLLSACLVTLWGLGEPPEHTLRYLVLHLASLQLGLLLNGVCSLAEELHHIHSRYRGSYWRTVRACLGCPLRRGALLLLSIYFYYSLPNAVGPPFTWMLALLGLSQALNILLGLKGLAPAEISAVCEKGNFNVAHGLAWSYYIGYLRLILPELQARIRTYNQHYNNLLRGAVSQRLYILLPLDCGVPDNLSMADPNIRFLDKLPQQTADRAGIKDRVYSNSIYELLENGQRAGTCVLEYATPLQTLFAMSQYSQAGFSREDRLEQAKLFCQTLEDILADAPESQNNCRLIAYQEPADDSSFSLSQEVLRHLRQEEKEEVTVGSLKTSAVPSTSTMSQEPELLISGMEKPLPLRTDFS

Row | SMILES | hSTING Tm Shift HAQ (HAQ allele hSTING) [°C] | hSTING Tm Shift WT (hSTING(WT)) [°C] | hSTING Tm Shift REF (hSTING(REF)) [°C] | EC50 (hSTING HAQ allele) [µM] | binding relative to OH reference compound, in words (HAQ allele hSTING; Table 4 comment, HAQ allele hSTING) | binding relative to OH reference compound, in words (hSTING(WT); Table 4 comment, wild type hSTING) | binding relative to OH reference compound, in words (hSTING(REF)) | activity relative to OH reference compound, in words (hSTING HAQ allele; Table 5 comment, THP1 cells without digitonin)
1 | Nc1nc2c(ncn2[C@@H]2O[C@@H]3COP(=O)(O)O[C@H]4[C@@H](O)[C@H](n5cnc6c(=O)[nH]c(N)nc65)O[C@@H]4COP(=O)(O)O[C@H]3[C@H]2O)c(=O)[nH]1 [3'3'-(G)(G), cyclic-[G(3′,5′)p-G(3′,5′)p], reference compound] | 9.97 | 6.1 | 6.1 | – | – | – | – | –
2 | Nc1nc2c(ncn2[C@@H]2O[C@@H]3CO[P@@](=O)(S)O[C@H]4[C@@H](O)[C@H](n5cnc6c(N)ncnc65)O[C@@H]4CO[P@@](=O)(S)O[C@H]3[C@H]2O)c(=O)[nH]1 [3'3'-RR-(G)(A), reference compound] | 21.0 | 11.1 | 7.2 | 28 | – | – | – | –
3 | Nc1nc2c(ncn2[C@@H]2O[C@@H]3CO[P@@](=O)(S)O[C@H]4[C@@H](O)[C@H](n5cnc6c(=O)[nH]c(N)nc65)O[C@@H]4CO[P@@](=O)(S)O[C@H]3[C@H]2O)c(=O)[nH]1 [3'3'-RR-(G)(G), dithio-(Rp,Rp)-cyclic-[G(3′,5′)p-G(3′,5′)p], reference compound] | 15.3 | 9.5 | 10.3 | 75 | – | – | – | –
4 | Nc1ncnc2c1ncn2[C@@H]1O[C@@H]2CO[P@@](=O)(S)O[C@H]3[C@H](F)[C@H](n4cnc5c(N)ncnc54)O[C@@H]3CO[P@@](=O)(S)O[C@H]2[C@@H]1F [Compound 7, (2R,3S,3aR,5R,7aR,9R,10S,10aR,12R,14aR)-2,9-bis(6-amino-9H-purin-9-yl)-3,10-difluoro-5,12-dimercaptooctahydro-2H,7H-difuro[3,2-d:3′,2′-j][1,3,7,9]tetraoxa[2,8]diphosphacyclododecine 5,12-dioxide] | 11.2 | 3.1 | 0.3 | 284 | – | – | – | –
5 | Nc1ncnc2c1ncn2[C@@H]1O[C@@H]2CO[P@@](=O)(S)O[C@H]3[C@H](F)[C@H](n4cnc5c(N)ncnc54)O[C@@H]3CO[P@](=O)(S)O[C@H]2[C@@H]1F [Compound 7a, (2R,3 S,3aR,5R,7aR,9R,10S,10aR,12S,14aR)-2,9-bis(6-amino-9H-purin-9-yl)-3,10-difluoro-5,12-dimercaptooctahydro-2H,7H-difuro [3,2-d:3′,2′-j][1,3,7,9]tetraoxa[2,8]diphosphacyclododecine 5,12-dioxide] | 3.1 | 0.1 | 0 | > 150 | – | – | – | –
6 | Nc1nc2c(ncn2[C@@H]2O[C@@H]3CO[P@@](=O)(S)O[C@H]4[C@@H](F)[C@H](n5cnc6c(=O)[nH]c(N)nc65)O[C@@H]4CO[P@@](=O)(S)O[C@H]3[C@H]2F)c(=O)[nH]1 [Compound 17, 9,9′-((2R,3R,3aR,5R,7aR,9R,10R,10aR,12R,14aR)-3,10-difluoro-5,12-dimercapto-5,12-dioxidooctahydro-2H,7H-difuro [3,2-d:3′,2′-j][1,3,7,9]tetraoxa[2,8]diphosphacyclododecine-2,9-diyl)bis(2-amino-1,9-dihydro-6H-purin-6-one)] | 22.6 | 12.6 | 11.4 | 8 | improved binding | improved binding | improved binding | improved activity
7 | Nc1nc2c(ncn2[C@@H]2O[C@@H]3CO[P@@](=O)(S)O[C@H]4[C@@H](F)[C@H](n5cnc6c(=O)[nH]c(N)nc65)O[C@@H]4CO[P@](=O)(S)O[C@H]3[C@H]2F)c(=O)[nH]1 [Compound 17a, 9,9′-((2R,3R,3aR,5R,7aR,9R,10R,10aR,12S,14aR)-3,10-difluoro-5,12-dimercapto-5,12-dioxidooctahydro-2H,7H-difuro [3,2-d:3′,2′-j][1,3,7,9]tetraoxa[2,8]diphosphacyclododecine-2,9-diyl)bis(2-amino-1,9-dihydro-6H-purin-6-one)] | – | – | – | > 150 | – | – | – | –
8 | Nc1ncnc2c1ncn2[C@@H]1O[C@@H]2CO[P@](=O)(S)O[C@H]3[C@@H](F)[C@H](n4cnc5c(N)ncnc54)O[C@@H]3CO[P@@](=O)(S)O[C@H]2[C@H]1O [Compound 22a, (2R,3R,3aR,5S,7aR,9R,10R,10aS,12R,14aR)-2,9-bis(6-amino-9H-purin-9-yl)-3-fluoro-10-hydroxy-5,12-dimercaptooctahydro-2H,7H-difuro[3,2-d:3′,2′-j][1,3,7,9]tetraoxa[2,8]diphosphacyclododecine 5,12-dioxide] | 11.4 | 6.4 | 4.3 | 99 | – | – | – | –
9 | Nc1nc2c(ncn2[C@@H]2O[C@@H]3CO[P@@](=O)(S)O[C@H]4[C@@H](O)[C@H](n5cnc6c(N)ncnc65)O[C@@H]4CO[P@](=O)(S)O[C@H]3[C@H]2F)c(=O)[nH]1 [Compound 23a, 2-amino-9-((2R,3R,3aR,5S,7aR,9R,10R,10aS,12R,14aR)-9-(6-amino-9H-purin-9-yl)-3-fluoro-10-hydroxy-5,12-dimercapto-5,12-dioxidooctahydro-2H,7H-difuro[3,2-d:3′,2′-j][1,3,7,9]tetraoxa[2,8]diphosphacyclododecin-2-yl)-1,9-dihydro-6H-purin-6-one] | 16.5 | 10.6 | 7.8 | 25 | – | – | – | –
10 | CC(C)C(=O)Nc1nc2c(ncn2[C@@H]2O[C@@H]3CO[P@@](=O)(S)O[C@H]4[C@@H](F)[C@H](n5cnc6c(NC(=O)c7ccccc7)ncnc65)O[C@@H]4CO[P@@](=O)(S)O[C@H]3[C@H]2F)c(=O)[nH]1 [Compound 25, N-(9-((2R,3R,3aR,5R,7aR,9R,10R,10aR,12R,14aR)-3,10-difluoro-9-(2-isobutyramido-6-oxo-1,6-dihydro-9H-purin-9-yl)-5,12-dimercapto-5,12-dioxidooctahydro-2H,7H-difuro[3,2-d:3′,2′-j][1,3,7,9]tetraoxa[2,8]diphosphacyclododecin-2-yl)-9H-purin-6-yl)benzamide] | 14.7 | 10.6 | 8.6 | 78 | – | – | improved binding | –
11 | CC(C)C(=O)Nc1nc2c(ncn2[C@@H]2O[C@@H]3CO[P@](=O)(S)O[C@H]4[C@@H](F)[C@H](n5cnc6c(NC(=O)c7ccccc7)ncnc65)O[C@@H]4CO[P@@](=O)(S)O[C@H]3[C@H]2F)c(=O)[nH]1 [Compound 25a, N-(9-((2R,3R,3aR,5S,7aR,9R,10R,10aR,12R,14aR)-3,10-difluoro-9-(2-isobutyramido-6-oxo-1,6-dihydro-9H-purin-9-yl)-5,12-dimercapto-5,12-dioxidooctahydro-2H,7H-difuro[3,2-d:3′,2′-j][1,3,7,9]tetraoxa[2,8]diphosphacyclododecin-2-yl)-9H-purin-6-yl)benzamide] | 8.9 | 6.8 | 5.4 | > 150 | – | – | – | –
